Measured values reported in patent publication US20160101177A1, “pH AND LIGHT ACTIVATED ANTI-CANCER DRUGS” (The Board of Trustees of the University of Alabama, priority 2014, published 2016).
Values joined by “and” are separate entries in the source; they are usually repeats but may differ in a detail not shown here. Equal values may be shown once.

Experiments:
[1] = test system: human cervical carcinoma (HeLa) cells; experiment: MTT cell viability assay in HeLa cells with or without 450 nm irradiation; format: cell-based; settings: for HeLa cell viability, no irradiation: absence of light; for IC50: read-out: IC50 (error)
Protocol: For cell culture, human cervical carcinoma (HeLa) cells were obtained from the ATCC. The cells were cultured at 37° C. in a 5% CO2, humidified atmosphere in Dulbecco's Modified Eagle Medium (DMEM) supplemented with 10% fetal bovine serum, 100 U/mL penicillin, and 100 μg/ml streptomycin (Invitrogen). Assays were accomplished by seeding cells at a density of 5,000 cells/well in a 96-well plate and incubated at 37° C. overnight. Media was exchanged and then cells were treated with either 100 μM [Ru(bpy)2(66′bpy(OH)2)]^2+, [Ru(bpy)2(44′bpy(OH)2)]^2+, or [Ru(bpy)3]^2+ for 48 h. The medium containing compounds was discarded, cells were washed, and fresh Hank's Balanced Salt Solution was added. In the dark, cells were irradiated using a 450 nm light emitting diode (LED) flashlight positioned 4 cm from the plate for 1 h. The salt solution was exchanged with media and cells were allowed to grow for 24 h. Media containing 20 μL of 3-(4,5-dimethylthiazol-2-yl)-[…] bromide (MTT) (5 mg/mL) was added to each well and incubated for an additional 3 h. The medium was removed. After adding 200 μL of DMSO to each well, the optical densities at 570 nm were determined The p-values were calculated from triplicate data sets using KaleidaGraph software.
Upon irradiation the [Ru(bpy)2(66′bpy(OH)2)]^2+ prodrug can be converted into a cytotoxic agent while in a cell. For example, HeLa cells were plated, incubated with [Ru(bpy)2(66′bpy(OH)2)]^2+, irradiated, and an MTT cell viability assay was used to assess cellular viability. […] The average viability dropped to 93+/−6%. The change is not statistically significant with p greater than 0.05. Similar results were obtained when cells were not treated with the agent and only irradiated for one hour. The viability dropped to 88+/−9%. […] When [Ru(bpy)2(66′bpy(OH)2)]^2+ was incubated with HeLa cells and irradiated the viability dropped to 47+/−12%. This is a statistically significant drop with p less than 0.004 and 0.02 for no ruthenium-complex and no irradiation respectively. Further experiments changing the concentration of [Ru(bpy)2(66′bpy(OH)2)]^2+ in HeLa cells under irradiation can allow for measurement of an inhibitory concentration (IC50). The IC50 for anti-cancer activity is given in Table 1, which are consistent with the data in FIG. 3.

[2] = Kinetics of light-induced ligand photo-dissociation monitored by UV/visible spectroscopy; format: physicochemical; settings: for rate of photodecomposition / ligand loss: pH 7.5 in water
Text: The rate of ligand loss from [Ru(bpy)2(66′bpy(OH)2)]^2+ to give the active anti-cancer agent ([Ru(bpy)2(solvent)2]^2+) can depend greatly on pH and the solvent composition. At pH 5 in aqueous solution, [Ru(bpy)2(66′bpy(OH)2)]^2+ undergoes blue light induced ligand loss which was monitored by UV/visible spectroscopy over one hour (graph (a) in FIG. 8). At this pH, which is below pKa1 and pKa2, the dihydroxybipyridine ligand should be in its native (protonated) state and should correspond to weaker Ru—N bonds (cf. deprotonated ligand), due to a less electron rich ligand as corroborated by crystallographic and computational results described herein. […] This A→B process is consistent with the clean isosbestic point observed, and furthermore, a first or second order process can be ruled out due to non-linear (curved) plots for these rate laws (see supplementary materials).
At this pH, which is above pKa1 and pKa2, the 6,6′-dihydroxybipyridine ligand should be fully deprotonated, which corresponds to stronger Ru—N bonds. Slight fluctuations in the absorbance values can be attributed to noise, and at this pH the rate of photodecomposition appears to be zero. Thus, the deprotonated, more strongly donating ligand appears to block photodecomposition. Thus, this establishes the framework for how a metal-based prodrug can be selectively activated in cancer cells, which have a lower pH as compared to normal cells.
Studies in acetonitrile were done to monitor the process that gave rise to ([Ru(bpy)2(CH3CN)2]^2+) and investigate the influence of solvent on the rates. […] In contrast, upon irradiation with blue light (450 nm), [Ru(bpy)2(66′bpy(OH)2)]^2+ in acetonitrile undergoes decomposition to give [Ru(bpy)2(CH3CN)2)]^2+ and the free ligand, 66′bpy(OH)2 (λmax=343 nm, 421 nm). These products have been prepared independently and their spectra are consistent with those shown for the final result of photodecomposition (graph (c) in FIG. 8). The observed zero order rate constant, kobs=2.6×10^−7 M/s, was determined by fitting an A→B process at 457 nm. The large changes in light absorption show a clean isosbestic point at λ=422 nm and is consistent with an A→B process. Furthermore, the light induced loss of a ligand is consistent with a zero order process that is independent of concentration. The observed rate constant, kobs=2.6(1)×10^−7 M/s, reflects that photodecomposition is nearly complete (87%) in 5 minutes, and it is entirely complete within 20 minutes, graph (c) in FIG. 8. Thus, the reaction proceeds 15 times more quickly in acetonitrile vs. pH 5 aqueous media. This could be attributed to decreased back reaction in acetonitrile, or enhanced stability of the product ligand in acetonitrile since it is better solvated. The product complex is analogous to the likely product of photodecomposition in vivo, namely [Ru(bpy)2(H2O)2)]^2+.

[3] = pH titration by UV/visible absorbance in aqueous buffers (pKa); format: physicochemical; settings: aqueous buffers pH 1 to 13, 25° C.
Protocol: ^1H-NMR spectra were collected on a Varian 300 MHz Fourier Transform spectrometer in deuterated acetonitrile (CD3CN) Infrared spectra were obtained on a Perkin Elmer Spectrum One FT-IR with Universal ATR sampling accessory. UV-visible absorption spectra were collected on a Scinco S-3100 diode-array spectrophotometer at a resolution of 1 nm. Luminescence data was collected on a Horiba Jobin Yvon Fluoromax 3. pH measurements were performed using a VWR SympHony pH meter, utilizing a three point calibration at pH=4.0, 7.0, and 10.0.
UV/visible absorbance data was collected for [Ru(bpy)2(66′bpy(OH)2)]^2+ in aqueous buffers ranging from pH=1 to pH=13, FIG. 6. The deprotonated form of [Ru(bpy)2(66′bpy(OH)2)]^2+ is red shifted compared to the protonated form of the complex. The pH titration data can show two distinct events that yielded a pKa1=5.26 and pKa2=7.27.

[4] = 100 μM complex for 48 h, untreated non-irradiated cells = 100%
[5] = HeLa cells under irradiation (450 nm, 1 h), MTT

Row | SMILES | HeLa cell viability, no irradiation [1, 4] | IC50 (error) [1, 5] | IC50 [1, 5] | photo-dissociation of ligand ([2]; blue light) | HeLa cell viability, with irradiation ([1]; 100 μM complex for 48 h, then 450 nm irradiation for 1 h, untreated non-irradiated cells = 100%) | rate in acetonitrile vs. pH 5 aqueous media ([2]; 450 nm blue light) | time to entirely complete photodecomposition ([2]; acetonitrile, 450 nm blue light) | extent of photodecomposition ([2]; acetonitrile, 450 nm blue light, 5 minutes) | kobs, zero order rate constant of photodecomposition ([2]; acetonitrile, 450 nm blue light, followed at 457 nm) | kobs, zero order rate constant of blue light induced ligand loss ([2]; pH 5 aqueous solution, 450 nm blue light, initial rate 0-300 s, followed at 461 nm) | ligand dissociation ([2]; pH 5 in water, blue light) | rate of photodecomposition / ligand loss ([2]; 450 nm blue light) | rate of photodecomposition / ligand loss ([2]; 450 nm blue light, listed as [Ru(bpy)2(66′bpy(OH)2)2)]^2+) | stability in acetonitrile solution ([2]; protected from light or exposed to 720 nm red light) | pKa1 [3] | pKa2 [3]
1 | F[P-](F)(F)(F)(F)F.F[P-](F)(F)(F)(F)F.Oc1ccnc(-c2cc(O)ccn2)c1.[Ru+2].c1ccc(-c2ccccn2)nc1.c1ccc(-c2ccccn2)nc1 [[Ru(bpy)2(44′bpy(OH)2)]^2+, [Ru(bpy)2(44′bpy(OH)2)][PF6]2] | 91+/−4% | no significant effects | > 100 µM | no photo-dissociation | – | – | – | – | – | – | – | – | – | – | – | –
2 | F[P-](F)(F)(F)(F)F.F[P-](F)(F)(F)(F)F.O.Oc1cccc(-c2cccc(O)n2)n1.[Ru+2].c1ccc(-c2ccccn2)nc1.c1ccc(-c2ccccn2)nc1 [[Ru(bpy)2(66′bpy(OH)2)]^2+, [Ru(bpy)2(66′bpy(OH)2)][PF6]2.H2O] | – | – | 88 µM | – | 47+/−12% and 47% | 15 times | ≤ 20 min | 87% | 2.6(1)×10^−7 M/s | 1.7(2)×10^−8 M/s | readily dissociates | no measurable photodecomposition | zero | stable | 5.26 | 7.27
3 | [Cl][Ru][Cl].c1ccc(-c2ccccn2)nc1.c1ccc(-c2ccccn2)nc1.c1ccc(-c2ccccn2)nc1 [[Ru(bpy)3]^2+, [Ru(bpy)3][Cl]2] | 91+/−4% | – | 152 µM | – | – | – | – | – | – | – | – | – | – | – | – | –
